Experimental data reported in patent US20110040086A1, “Novel Beta-Lactam Antibiotics, Methods for Their Production, and Their Use” (DRITTE PATENTPORTFOLIO BETEILIGUNGSGESELLSCHAFT MB, priority 2007, published 2011).

What was measured:
B. subtilis AWD 166 = assay: agar diffusion test (antimicrobial effect); format: cell-based, Bacillus subtilis
Procedure, shortened: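 Nutrient agar seeded with B. subtilis AWD 166 to give dense non-confluent colonies; compounds in methanol or distilled water applied to discs at 10, 50, 100 μg. After 20 h at 37 °C, inhibition zone diameter measured in mm.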

[1] = system: Escherichia coli SBUG 1135; assay: agar diffusion test (Test System 1, antimicrobial effect); format: cell-based; parameters: key: r = resistant (no detectable zone of inhibition)
Procedure, shortened: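 E. coli SBUG 1135 grown 17 h at 37° C, 180 rpm, diluted 1:100 and seeded in nutrient agar at ~10^6 cells. Discs loaded with 10, 50 or 100 μg compound (methanol or water); inhibition-zone diameter (mm) read after 20 h at 37° C.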

[2] = system: Enterococcus faecalis 769; assay: agar diffusion test (Test System II, multi-resistant germs); format: cell-based; parameters: key: r = resistant (no detectable zone of inhibition)
Procedure, shortened: (§1)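 Semi-synthetic compounds were tested by disc diffusion at three loadings, 10, 50 and 100 μg per disc. Bacteria at McFarland 0.5 were spread on Müller-Hinton agar II; after 18-20 h at 37 °C the inhibition zone diameter was taken.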

E. faecalis 945 = assay: as above; format: cell-based, Enterococcus faecalis; parameters: key: r = resistant (no detectable zone of inhibition)
Procedure, shortened: as §1

S. aureus 33490 = assay: as above; format: cell-based, Staphylococcus aureus; parameters: key: r = resistant (no detectable zone of inhibition)
Procedure, shortened: as §1

S. aureus 34289 = assay: as above; format: cell-based, Staphylococcus aureus; parameters: key: r = resistant (no detectable zone of inhibition)
Procedure, shortened: as §1

S. aureus 36881 = assay: as above; format: cell-based, Staphylococcus aureus; parameters: key: r = resistant (no detectable zone of inhibition)
Procedure, shortened: as §1

S. aureus 39105 = assay: as above; format: cell-based, Staphylococcus aureus; parameters: key: r = resistant (no detectable zone of inhibition)
Procedure, shortened: as §1

S. aureus 520 = assay: as above; format: cell-based, Staphylococcus aureus; parameters: key: r = resistant (no detectable zone of inhibition)
Procedure, shortened: as §1

S. aureus 526 = assay: as above; format: cell-based, Staphylococcus aureus; parameters: key: r = resistant (no detectable zone of inhibition)
Procedure, shortened: as §1

[3] = system: S. aureus North Germany strain; assay: as above; format: cell-based, Staphylococcus aureus; parameters: key: r = resistant (no detectable zone of inhibition)
Procedure, shortened: as §1

S. aureus 38418 = assay: as above; format: cell-based, Staphylococcus aureus
Procedure, shortened: as §1

S. aureus ATCC 6538 = assay: as above; format: cell-based, Staphylococcus aureus
Procedure, shortened: as §1

[4] = system: Staphylococcus aureus ATCC 6538; assay: mouse infected with Staphylococcus aureus infection model (survival); format: in vivo, BALB/c mice; conditions: 2 × 0.5 mg (25 mg/kg) i.p.
Procedure, shortened: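 BALB/c mice, at least 3 per group, made neutropenic with cyclophosphamide i.p. (250 mg/kg day 0, 100 mg/kg day 2). Infected i.p. on day 3 with 10 μl/g of S. aureus suspension at OD550 0.6 (ca. 10^10-10^12 CFU). Antibiotic given i.p. in PBS with 3% DMSO 30 min post-infection, then repeated; survival recorded.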

## 7-{2-2-(2-hydroxyethylcarbamoyl)-3,6-dioxyocyclohexa-1,4-dienylamino]-2-(4-hydroxyphenyl)-acetylamino}-desacetoxycephalosporanic acid [1a]
B. subtilis AWD 166; Quantity n 0.019
  Diameter of zone of inhibition: 24 mm
B. subtilis AWD 166; Quantity n 0.1
  Diameter of zone of inhibition: 30 mm
B. subtilis AWD 166; Quantity n 0.19
  Diameter of zone of inhibition: 32 mm
[1]; Quantity n 0.019
  Diameter of zone of inhibition: r^2
[1]; Quantity n 0.1
  Diameter of zone of inhibition: 14 mm
[1]; Quantity n 0.19
  Diameter of zone of inhibition: 16 mm
[2]; Quantity n 0.019
  Diameter of zone of inhibition: r
[2]; Quantity n 0.1
  Diameter of zone of inhibition: r
[2]; Quantity n 0.19
  Diameter of zone of inhibition: r
E. faecalis 945; Quantity n 0.019
  Diameter of zone of inhibition: r
E. faecalis 945; Quantity n 0.1
  Diameter of zone of inhibition: r
E. faecalis 945; Quantity n 0.19
  Diameter of zone of inhibition: r
S. aureus 33490; Quantity n [μmol] 0.019
  Diameter of zone of inhibition: r
S. aureus 33490; Quantity n [μmol] 0.1
  Diameter of zone of inhibition: 14 mm
S. aureus 33490; Quantity n [μmol] 0.19
  Diameter of zone of inhibition: 18 mm
S. aureus 34289; Quantity n [mol] 0.019
  Diameter of zone of inhibition: r
S. aureus 34289; Quantity n [mol] 0.1
  Diameter of zone of inhibition: r
S. aureus 34289; Quantity n [mol] 0.19
  Diameter of zone of inhibition: r
S. aureus 36881; Quantity n 0.019
  Diameter of zone of inhibition: r
S. aureus 36881; Quantity n 0.1
  Diameter of zone of inhibition: 10 mm
S. aureus 36881; Quantity n 0.19
  Diameter of zone of inhibition: 16 mm
S. aureus 39105; Quantity n 0.019
  Diameter of zone of inhibition: r
S. aureus 39105; Quantity n 0.1
  Diameter of zone of inhibition: r
S. aureus 39105; Quantity n 0.19
  Diameter of zone of inhibition: 14 mm
S. aureus 520; Quantity n [mol] 0.019
  Diameter of zone of inhibition: r
S. aureus 520; Quantity n [mol] 0.1
  Diameter of zone of inhibition: r
S. aureus 520; Quantity n [mol] 0.19
  Diameter of zone of inhibition: 12 mm
S. aureus 526; Quantity n 0.019
  Diameter of zone of inhibition: r
S. aureus 526; Quantity n 0.1
  Diameter of zone of inhibition: r
S. aureus 526; Quantity n 0.19
  Diameter of zone of inhibition: 10 mm
[3]; Quantity n 0.019
  Diameter of zone of inhibition: r
[3]; Quantity n 0.1
  Diameter of zone of inhibition: 16 mm
[3]; Quantity n 0.19
  Diameter of zone of inhibition: 18 mm
S. aureus 38418; Quantity n [mol] 0.019
  Diameter of zone of inhibition: 14 mm
S. aureus 38418; Quantity n [mol] 0.1
  Diameter of zone of inhibition: 24 mm
S. aureus 38418; Quantity n [mol] 0.19
  Diameter of zone of inhibition: 26 mm
S. aureus ATCC 6538; Quantity n 0.019
  Diameter of zone of inhibition: 20 mm
S. aureus ATCC 6538; Quantity n 0.1
  Diameter of zone of inhibition: 28 mm
S. aureus ATCC 6538; Quantity n 0.19
  Diameter of zone of inhibition: 30 mm
[4]
  Survival/tested mice n/n: 9/9

## O=C(O)C1=C(Cl)CSC2C(NC(=O)C(NC3=C(C(=O)NCCO)C(=O)C=CC3=O)c3ccccc3)C(=O)N12 (centres unmarked) [1i, 3-chlorine-7-{2-[2-(2-hydroxyethylcarbamoyl)-3,6-dioxocyclohexa-1,4-dienylamino]-2-phenyl-acetylamino}-8-oxo-1-thia-5-azabicyclo[4.2.0]oct-3-en-4-carboxylic acid]
B. subtilis AWD 166; Quantity n 0.029
  Diameter of zone of inhibition: 30 mm
B. subtilis AWD 166; Quantity n 0.14
  Diameter of zone of inhibition: 36 mm
B. subtilis AWD 166; Quantity n 0.29
  Diameter of zone of inhibition: 38 mm
[1]; Quantity n 0.029
  Diameter of zone of inhibition: 18 mm
[1]; Quantity n 0.14
  Diameter of zone of inhibition: 24 mm
[1]; Quantity n 0.29
  Diameter of zone of inhibition: 28 mm
[2]; Quantity n 0.029
  Diameter of zone of inhibition: r
[2]; Quantity n 0.14
  Diameter of zone of inhibition: r
[2]; Quantity n 0.29
  Diameter of zone of inhibition: r
E. faecalis 945; Quantity n 0.029
  Diameter of zone of inhibition: r
E. faecalis 945; Quantity n 0.14
  Diameter of zone of inhibition: r
E. faecalis 945; Quantity n 0.29
  Diameter of zone of inhibition: r
S. aureus 33490; Quantity n [μmol] 0.029
  Diameter of zone of inhibition: 14 mm
S. aureus 33490; Quantity n [μmol] 0.14
  Diameter of zone of inhibition: 22 mm
S. aureus 33490; Quantity n [μmol] 0.29
  Diameter of zone of inhibition: 26 mm
S. aureus 34289; Quantity n [mol] 0.029
  Diameter of zone of inhibition: r
S. aureus 34289; Quantity n [mol] 0.14
  Diameter of zone of inhibition: r
S. aureus 34289; Quantity n [mol] 0.29
  Diameter of zone of inhibition: r
S. aureus 36881; Quantity n 0.029
  Diameter of zone of inhibition: r
S. aureus 36881; Quantity n 0.14
  Diameter of zone of inhibition: 12 mm
S. aureus 36881; Quantity n 0.29
  Diameter of zone of inhibition: 18 mm
S. aureus 39105; Quantity n 0.029
  Diameter of zone of inhibition: r
S. aureus 39105; Quantity n 0.14
  Diameter of zone of inhibition: 18 mm
S. aureus 39105; Quantity n 0.29
  Diameter of zone of inhibition: 22 mm
S. aureus 520; Quantity n [mol] 0.029
  Diameter of zone of inhibition: r
S. aureus 520; Quantity n [mol] 0.14
  Diameter of zone of inhibition: r
S. aureus 520; Quantity n [mol] 0.29
  Diameter of zone of inhibition: r
S. aureus 526; Quantity n 0.029
  Diameter of zone of inhibition: r
S. aureus 526; Quantity n 0.14
  Diameter of zone of inhibition: r
S. aureus 526; Quantity n 0.29
  Diameter of zone of inhibition: r
[3]; Quantity n 0.029
  Diameter of zone of inhibition: r
[3]; Quantity n 0.14
  Diameter of zone of inhibition: 12 mm
[3]; Quantity n 0.29
  Diameter of zone of inhibition: 16 mm
S. aureus 38418; Quantity n [mol] 0.029
  Diameter of zone of inhibition: 20 mm
S. aureus 38418; Quantity n [mol] 0.14
  Diameter of zone of inhibition: 30 mm
S. aureus 38418; Quantity n [mol] 0.29
  Diameter of zone of inhibition: 34 mm
S. aureus ATCC 6538; Quantity n 0.029
  Diameter of zone of inhibition: 26 mm
S. aureus ATCC 6538; Quantity n 0.14
  Diameter of zone of inhibition: 34 mm
S. aureus ATCC 6538; Quantity n 0.29
  Diameter of zone of inhibition: 36 mm
[4]
  Survival/tested mice n/n: 12/12
